Common to all, as to assay type: ADME, organism-based
Settings in all cases: in vivo

A short description of series [1]: AUC in mouse at 10 mg/kg, po by WinNonlin non-compartmental analysis. The arrangement: dose 10 mg/kg, route po.
A short description of series [2]: Cmax in mouse at 10 mg/kg, po by WinNonlin non-compartmental analysis. The arrangement: dose 10 mg/kg, route po.
The nature of series [3]: Oral bioavailability in mouse at 10 mg/kg by WinNonlin non-compartmental analysis.

Take `CC(C)c1cnc(-c2cc(Cl)ccc2F)cc1Nc1ccncc1C(=O)NC(CO)CO` [PF-06952229]: the AUC (commonly concentration integrated over time) in series [1] (read-out: AUC) was determined as 16.2 µM·h. Moreover, in series [2], the Cmax (in general, the maximum level reached in the sampled fluid or tissue) was found to be 7070 nM. Besides, in series [3], the bioavailability (commonly dose-corrected exposure relative to a reference, in per cent) worked out at 87%.
For the compound `CC(C)c1cnc(-c2cc(Cl)ccc2F)cc1Nc1ccncc1C(=O)NCCN`, the AUC in series [1] (read-out: AUC) turned out to be 0.93 µM·h. The Cmax in series [2] worked out at 200 nM. The same compound registered a bioavailability in series [3] of 16%.
On to `CC(C)c1cnc(-c2cc(Cl)ccc2F)cc1Nc1ccncc1C(=O)NC[C@H](C)O`, for which, in series [1] (read-out: AUC), the exposure (AUC) amounted to 2.54 µM·h. Further, in series [2], the Cmax was determined as 1880 nM. In series [3], this compound showed a bioavailability of 33%.
With `CC(C)c1cnc(-c2cc(Cl)ccc2F)cc1Nc1ccncc1C(=O)NCC(N)=O`, the AUC in series [1] (read-out: AUC) was 1.47 µM·h. In series [2], this compound came in with a Cmax of 990 nM. In series [3], this compound gave a bioavailability of 38%.
For the compound `CC(C)c1cnc(-c2cc(Cl)ccc2F)cc1Nc1ccncc1C(=O)N[C@@H](C)CO`, the AUC in series [1] amounted to 5.25 µM·h. Moreover, the Cmax in series [2] was 1570 nM. The compound also returned a F in series [3] (po, 10 mg/kg) of 88%.

(Values after ChEMBL document CHEMBL5223120 (Bioorg Med Chem Lett, 2022).)
